Measured values taken from PubChem BioAssay AID248 (DTP/NCI, 2004).
Where “and” joins values, the source holds several entries; their conditions need not be identical. Equal values may be shown once. Inconclusive results and toxic doses are left out. No stated cut-off is given here; in the data, active means T/C of 150% or more; inactive means T/C below 125%.

Tested on: L1210 leukemia ip in BDF1 mice, survival T/C
Assay: NCI In Vivo Anticancer Drug Screen. Data for tumor model L1210 Leukemia (intraperitoneal) in B6D2F1 (BDF1) mice
Settings: endpoint: mean survival time, higher = longer survival
Outline: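 In this screen, tumor-bearing mice given compound are compared to those given vehicle, and their survival values are reported as a treated-to-control quotient.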

[1] = dose: 100.0 mg/kg/injection, schedule: Q01DX001 (ip), vehicle: saline with Tween-80
[2] = dose: 200.0 mg/kg/injection, schedule: Q01DX001 (ip), vehicle: saline with Tween-80
[3] = dose: 400.0 mg/kg/injection, schedule: Q01DX001 (ip), vehicle: saline with Tween-80
[4] = dose: 100.0 mg/kg/injection, schedule: Q04DX003 (ip), vehicle: Klucel (hydroxypropylcellulose) (HPC)
[5] = dose: 200.0 mg/kg/injection, schedule: Q04DX003 (ip), vehicle: Klucel (hydroxypropylcellulose) (HPC)
[6] = dose: 400.0 mg/kg/injection, schedule: Q04DX003 (ip), vehicle: Klucel (hydroxypropylcellulose) (HPC)
[7] = dose: 100.0 mg/kg/injection, schedule: Q01DX009 (ip), vehicle: Klucel (hydroxypropylcellulose) (HPC)
[8] = dose: 200.0 mg/kg/injection, schedule: Q01DX009 (ip), vehicle: Klucel (hydroxypropylcellulose) (HPC)
[9] = dose: 400.0 mg/kg/injection, schedule: Q01DX009 (ip), vehicle: Klucel (hydroxypropylcellulose) (HPC)
[10] = dose: 100.0 mg/kg/injection, schedule: Q01DX009 (ip), vehicle: saline
[11] = dose: 50.0 mg/kg/injection, schedule: Q01DX009 (ip), vehicle: Klucel (hydroxypropylcellulose) (HPC)
[12] = dose: 100.0 mg/kg/injection, schedule: Q04DX003 (ip), vehicle: saline
[13] = dose: 100.0 mg/kg/injection, schedule: Q01DX009 (ip), vehicle: saline with Tween-80
[14] = dose: 200.0 mg/kg/injection, schedule: Q01DX009 (ip), vehicle: saline with Tween-80

Measured: T/C

CCCC(C)CC(=O)CC(C)=O (stereo not given)
inactive: [1] 93 % of control | [2] 95 % of control | [3] 95 % of control

O=c1[nH]c2ccccc2n1C1=CCN(Cc2ccccc2)CC1
inactive: [4] 95 % of control | [5] 109 % of control | [6] 112 % of control

CN(Cc1cnc2nc(N)nc(N)c2n1)c1cc(Cl)c(C(=O)NC(CCC(=O)O)C(=O)O)cc1Cl (stereo not given)
inactive: dose: 6.25 mg/kg/injection, schedule: Q01DX009 (ip), vehicle: sodium bicarbonate 106 % of control | dose: 12.5 mg/kg/injection, schedule: Q01DX009 (ip), vehicle: sodium bicarbonate 115 % of control

COC1OCC(O)C(N)C1O (stereo not given)
inactive: dose: 100.0 mg/kg/injection, schedule: Q01DX001 (ip), vehicle: saline 102 % of control and 95 % of control | dose: 200.0 mg/kg/injection, schedule: Q01DX001 (ip), vehicle: saline 102 % of control and 104 % of control and 106 % of control | dose: 400.0 mg/kg/injection, schedule: Q01DX001 (ip), vehicle: saline 87 % of control and 98 % of control and 92 % of control

CNCCC(=O)C1CCC(OC)CC1 (stereo not given)
inactive: dose: 100.0 mg/kg/injection, schedule: Q04DX002 (ip), vehicle: saline 92 % of control | dose: 200.0 mg/kg/injection, schedule: Q04DX002 (ip), vehicle: saline 110 % of control

CCCNC(=O)Oc1ccccc1C(N)=O
inactive: [7] 105 % of control | [8] 102 % of control

CNC(C)C1CCC2C3CC=C4CC(O)CCC4(C)C3CCC12C (stereo not given)
inactive: dose: 100.0 mg/kg/injection, schedule: Q01DX001 (sc), vehicle: steriod suspending solution 104 % of control | dose: 200.0 mg/kg/injection, schedule: Q01DX001 (sc), vehicle: steriod suspending solution 87 % of control | dose: 400.0 mg/kg/injection, schedule: Q01DX001 (sc), vehicle: steriod suspending solution 94 % of control

CC(=O)Nc1ccc(/C=N/Nc2ccccc2)cc1
inactive: [7] 101 % of control | [8] 103 % of control | [9] 101 % of control

COC1OC(COC(=O)c2ccc([N+](=O)[O-])cc2)C(OC(=O)c2ccc([N+](=O)[O-])cc2)C1OCc1ccccc1 (stereo not given)
inactive: dose: 75.0 mg/kg/injection, schedule: Q01DX001 (ip), vehicle: other 86 % of control | dose: 150.0 mg/kg/injection, schedule: Q01DX001 (ip), vehicle: other 86 % of control | dose: 300.0 mg/kg/injection, schedule: Q01DX001 (ip), vehicle: other 86 % of control and 89 % of control

COC(CO)C(O)C(O)C=O (stereo not given)
inactive: [10] 93 % of control | dose: 200.0 mg/kg/injection, schedule: Q01DX009 (ip), vehicle: saline 97 % of control | dose: 400.0 mg/kg/injection, schedule: Q01DX009 (ip), vehicle: saline 102 % of control

O=C(O)C1CCC2CCCCC2[N-]1.O=C(O)C1CCC2CCCCC2[N-]1.[Zn+2] (stereo not given)
inactive: dose: 25.0 mg/kg/injection, schedule: Q01DX009 (ip), vehicle: Klucel (hydroxypropylcellulose) (HPC) 92 % of control | [11] 87 % of control | [7] 86 % of control | [4] 94 % of control | [5] 89 % of control | [6] 89 % of control

CCC(=O)OCNC(=O)NCc1ccco1
inactive: dose: 222.0 mg/kg/injection, schedule: Q01DX Z (ip), vehicle: methylcellulose (MC) 103 % of control | dose: 333.0 mg/kg/injection, schedule: Q01DX Z (ip), vehicle: methylcellulose (MC) 105 % of control | dose: 500.0 mg/kg/injection, schedule: Q01DX Z (ip), vehicle: methylcellulose (MC) 94 % of control

CCCCCCCCCCCCCCCCCC(O)CCCCCCCCCCCCCCCCC
inactive: dose: 100.0 mg/kg/injection, schedule: Q04DX003 (ip), vehicle: acetone 94 % of control | dose: 200.0 mg/kg/injection, schedule: Q04DX003 (ip), vehicle: acetone 96 % of control | dose: 400.0 mg/kg/injection, schedule: Q04DX003 (ip), vehicle: acetone 86 % of control

CNCc1nc2ccccc2c(C)[n+]1[O-]
inactive: [12] 97 % of control | dose: 200.0 mg/kg/injection, schedule: Q04DX003 (ip), vehicle: saline 97 % of control | dose: 400.0 mg/kg/injection, schedule: Q04DX003 (ip), vehicle: saline 95 % of control

Nc1ccc2ncsc2c1
inactive: [13] 114 % of control | dose: 100.0 mg/kg/injection, schedule: Q04DX003 (ip), vehicle: saline with Tween-80 102 % of control | [14] 88 % of control | dose: 200.0 mg/kg/injection, schedule: Q04DX003 (ip), vehicle: saline with Tween-80 95 % of control | dose: 400.0 mg/kg/injection, schedule: Q04DX003 (ip), vehicle: saline with Tween-80 98 % of control

Clc1ccccc1OCCNC1CC1
inactive: dose: 6.25 mg/kg/injection, schedule: Q01DX009 (ip), vehicle: saline 101 % of control | dose: 12.5 mg/kg/injection, schedule: Q01DX009 (ip), vehicle: saline 105 % of control | dose: 25.0 mg/kg/injection, schedule: Q01DX009 (ip), vehicle: saline 97 % of control | dose: 25.0 mg/kg/injection, schedule: Q04DX003 (ip), vehicle: saline 102 % of control | dose: 50.0 mg/kg/injection, schedule: Q01DX009 (ip), vehicle: saline 103 % of control | dose: 50.0 mg/kg/injection, schedule: Q04DX003 (ip), vehicle: saline 100 % of control | [10] 105 % of control | [12] 102 % of control

CCCCCCCCCCCC(c1ccccc1)[N+](C)(C)Cc1ccccc1 (stereo not given)
inactive: dose: 0.25 mg/kg/injection, schedule: Q01DX015 (ip), vehicle: saline 108 % of control | dose: 0.5 mg/kg/injection, schedule: Q01DX015 (ip), vehicle: saline 103 % of control | dose: 1.0 mg/kg/injection, schedule: Q01DX015 (ip), vehicle: saline 115 % of control | dose: 2.0 mg/kg/injection, schedule: Q01DX015 (ip), vehicle: saline 114 % of control | dose: 2.5 mg/kg/injection, schedule: Q01DX001 (ip), vehicle: carboxymethylcellulose (CMC) 93 % of control

O=C(Nc1ccc(C(=O)O)cc1)Nc1cccc(F)c1
inactive: [11] 102 % of control | [7] 111 % of control | dose: 100.0 mg/kg/injection, schedule: Q04DX002 (ip), vehicle: Klucel (hydroxypropylcellulose) (HPC) 95 % of control | dose: 200.0 mg/kg/injection, schedule: Q04DX002 (ip), vehicle: Klucel (hydroxypropylcellulose) (HPC) 98 % of control

O=c1ccc([N+](=O)[O-])cn1Cc1ccccc1
inactive: [1] 114 % of control | [13] 106 % of control | [2] 100 % of control | [14] 98 % of control | [3] 96 % of control | dose: 400.0 mg/kg/injection, schedule: Q01DX009 (ip), vehicle: saline with Tween-80 106 % of control

CC(C)CCS(=O)(=O)OCCCCOS(=O)(=O)CCC(C)C
inactive: dose: 50.0 mg/kg/injection, schedule: Q01DX001 (ip), vehicle: carboxymethylcellulose (CMC) 109 % of control | dose: 100.0 mg/kg/injection, schedule: Q01DX001 (ip), vehicle: carboxymethylcellulose (CMC) 104 % of control | [7] 106 % of control | [4] 105 % of control | dose: 200.0 mg/kg/injection, schedule: Q01DX001 (ip), vehicle: carboxymethylcellulose (CMC) 101 % of control | [8] 102 % of control | [5] 105 % of control | dose: 400.0 mg/kg/injection, schedule: Q01DX001 (ip), vehicle: carboxymethylcellulose (CMC) 103 % of control | [9] 109 % of control | [6] 106 % of control
